# From patent US20100210692A1, “METHODS OF TREATMENT USING SIRT MODULATORS AND COMPOSITIONS CONTAINING SIRT1 MODULATORS” (priority 2007, published 2010)
# Entries after “also recorded” stand apart in the source; their conditions may differ.
# Tests used:
# [1] = tested on: Fibroblasts that ectopically express PPARγ; assay: qPCR of FGF21 mRNA in fibroblasts that ectopically express PPARγ (Example 4); format: cell-based; settings: 5 μM compound with 5 μM troglitazone, day 4 to 6
# Protocol: Cells were harvested on day 6 for qPCR measurement of FGF21 mRNA. Three separate dishes of cells were analyzed for each condition.
# SIRT1 [2] = target: T1, SIRT1 (Homo sapiens, UniProt Q96EB6); assay: SIRT1 p53-382 IC50 assay (Table 1); format: biochemical
# T1 sequence (Q96EB6 1-747): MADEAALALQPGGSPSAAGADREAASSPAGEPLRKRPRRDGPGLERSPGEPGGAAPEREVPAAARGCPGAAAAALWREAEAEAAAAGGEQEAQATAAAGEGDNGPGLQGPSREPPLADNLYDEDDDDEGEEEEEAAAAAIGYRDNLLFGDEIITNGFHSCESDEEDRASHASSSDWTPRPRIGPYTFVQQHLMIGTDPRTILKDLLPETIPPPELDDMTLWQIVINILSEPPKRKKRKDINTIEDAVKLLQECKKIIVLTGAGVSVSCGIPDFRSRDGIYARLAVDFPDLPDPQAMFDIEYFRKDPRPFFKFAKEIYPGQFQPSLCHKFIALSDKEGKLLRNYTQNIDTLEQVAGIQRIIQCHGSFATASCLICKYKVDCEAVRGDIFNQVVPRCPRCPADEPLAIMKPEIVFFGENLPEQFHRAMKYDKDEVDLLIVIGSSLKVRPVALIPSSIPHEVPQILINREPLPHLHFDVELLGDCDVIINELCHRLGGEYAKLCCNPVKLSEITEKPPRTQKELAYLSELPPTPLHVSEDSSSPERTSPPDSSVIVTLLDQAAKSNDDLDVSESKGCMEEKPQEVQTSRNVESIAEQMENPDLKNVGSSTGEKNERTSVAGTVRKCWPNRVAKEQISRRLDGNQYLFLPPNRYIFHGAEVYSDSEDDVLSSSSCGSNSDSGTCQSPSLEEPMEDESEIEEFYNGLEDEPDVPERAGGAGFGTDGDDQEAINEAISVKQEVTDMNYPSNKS
# SIRT1 [3] = target: T1, SIRT1; assay: Activity of enantiomers against the SIRT1 enzyme; format: biochemical; settings: comparison of enantiomers
# 3T3-L1 adipocytes [4] = assay: Western blot of adiponectin secretion and intracellular proteins in 3T3-L1 adipocytes; format: cell-based, Murine; settings: for secretion of the HMW adiponectin complexes: non-reducing SDS-PAGE
# Protocol: Cell Culture: Murine 3T3-L1 preadipocytes were cultured and maintained in DMEM supplemented with […]. Differentiation was induced by exposure of postconfluent cells to DMEM containing 10% […], 1 μM dexamethasone (DEX), 0.5 mM 3-isobutyl-1-methylxanthine (MIX) and […] insulin. After 48 hours, the medium was changed to DMEM containing 10% FBS every two days. Human embryonic kidney (HEK)-293T cells were cultured in DMEM with 10% FBS; The Swiss F-PPARγ cells were differentiated as recently described (Wang et al, 2006; accompanying paper).
# Western Blot Analysis of Proteins: Isolation and western blot analysis of total cell proteins was performed as outlined previously (21). The antibodies employed in the analysis were as follows: Mouse polyclonal anti-adiponectin antibody (Affinity BioREagents, Golden, Colo.), polyclonal anti-SIRT1 antibody (Upstate), anti-PPARγ and anti-C/EBPα (Santa Cruz Biotechnology), anti-Ero1 polyclonal antibody (Abnova Co., Taiwan, China) and polyclonal anti-aP2 serum (Dr. David Benlohr at University of Minnesota). For analysis of secreted proteins, aliquots of the culture medium were centrifuged at low speed to remove debris and then subjected to standard SDS-PAGE as above or non-reducing SDS-PAGE as outlined by Kadowaki and collaborators (37). Prior to electrophoresis, the samples were mixed with 4× non-reducing protein sample buffer (200 mM, […], 8% SDS, 0.4% bromophenot blue, 40% glycerol) and incubated at room temperature for one hour. Care was taken to ensure that all components of the SDs PAGE system were completely free of reducing agents.
# [5] = tested on: Swiss 3T3 fibroblasts expressing wild type PPARγ; assay: RT-PCR of mRNAs in Swiss 3T3 fibroblasts expressing wild type PPARγ (FIG. 5); format: cell-based, mouse; settings: troglitazone 5 μM or T0070907 10 μM with differentiation cocktail, day 6
# Protocol: Swiss 3T3 fibroblasts expressing wild type PPARγ or a control vector were induced to differentiate by exposure to a differentiation cocktail of dexamethasone, isobutylmethylxanthine and insulin in 10% FBS as outlined in Materials and Methods (Con). […] At day 6, cells were harvested for analysis of individual mRNAs as indicated using RT-PCR.
# Cell Culture: Murine 3T3-L1 preadipocytes were cultured and maintained in DMEM supplemented with 0% calf serum. Differentiation was induced by exposure of postconfluent cells to DMEM containing 10% MS, 1 μM dexamethasone (DEX), 0.5 mM 3-isobutyl-1-methylxanthine (MIX) and 1,61 μM insulin. After 48 hours, the medium was changed to DMEM containing 10% FBS every two days.
# A Analysis: Total RNA was isolated using TRIzol following the manufacturer's instructions and was subjected to RT-PCR analysis as outlined in the Promega product manual as previously described (31). […] In the case of analyzing Ero1-Lα mRNA, primers were the same as those listed above for generating the Ero1-Lα pRevTRE expression vector.
# Swiss WT-PPARγ cells = assay: RT-PCR of Group 1 and Group 2 genes in Swiss WT-PPARγ cells; format: cell-based, mouse; settings: for expression of C/EBPα and adiponectin in response to endogenous ligands (FIG. 14B) / expression of the Group 2 genes in response to endogenous ligands (FIG. 14B): antagonist 10 μM, day 5
# Protocol: (§1) Cells were then harvested for extraction of RNA followed by RT-PCR analysis of FGF21 and FABP4/aP2 mRNAs as described in materials and methods. (B). […] (C). Reporter assays were also performed in Swiss fibroblasts stably expressing a WT-PPARγ or a pBabe-puro empty vector (control cells) following transfection of the FGF21 promoter reporter plasmids along with the renilla control vector in the presence or absence of GW1929. In both assays (B) and (C), a set of cells were also transfected with a reporter plasmid consisting of the PPRE from the aP2 gene upstream of luciferase within pGL3 (DR-1). Transcriptional activity of each of the fragments of the FGF21 gene promoter is shown as the ratio of luciferase to renilla activity (Luc/Ren) as described in materials and methods.
# (§2) Cells were refed every 2 days.
# Swiss EF-PPARγ cells = assay: RT-PCR of Group 1 and Group 2 genes in Swiss EF-PPARγ / F-PPARγ cells
# Protocol: In (A), (B) and (C), total RNA of cells was isolated at day 5 using Trizol Reagent (Invitrogen) and subjected to RT-PCR analysis of the indicated Group 1 and Group 2 genes as described in materials and methods.
# Cell Culture: The Swiss fibroblast cell lines expressing wild type (WT.) and mutant forms of PPARγ (E, EF, F, DD) generated as previously described (22) and murine 3T3-L1 preadipocytes were grown in Dulbecco's modified Eagle's medium (DMEM) containing 10% FBS (fibroblasts) or 10% calf serum (preadipocytes) until confluent and were then maintained in the same medium for an additional 2 days. […] Cells were refed every 2 days.
# Analysis of RNA: Total cellular RNA was prepared using TRIzol reagent (InVitrogen) according to the manufacturer's instructions. As were made from equivalent amounts of total RNA by using Reverse Transcription System (Promega) as described previously (33).
# [6] = tested on: mouse FGF21 promotor constructs; assay: FGF21 promoter luciferase reporter gene assay in Swiss fibroblasts; format: cell-based; settings: 1 μM GW1929, 48 hours
# Protocol: as §1
# [7] = tested on: Swiss F372A PPARγ cells (F-Ero1); assay: Adiponectin secretion in Swiss F372A PPARγ cells with ectopic Ero1-Lα (FIG. 9); format: cell-based, mouse; settings: F-Ero1 cells + tetracycline, 50 μM resveratrol for 2 days from day 4
# 3T3-L1 adipocytes [8] = assay: RT-PCR of Group 1 and Group 2 genes in differentiating 3T3-L1 cells (FIG. 17); format: cell-based, murine; settings: SIRT1 knockdown 3T3-L1 cells, day 4, 2 days exposure
# From the text: Untreated and treated cells were harvested for analysis of select mRNAs using RT-PCR as described in materials and methods. […] (C). Model proposing interplay between PPARγ and SIRT1 in controlling adipocyte function, PPARγ functions to regulate adipocyte formation and function. Endogenous ligands activate PPARγ requiring participation of both helix 7 and 12 to orchestrate adipogenesis. In mature adipocytes, SIRT1 mediates hormonal and nutrient control of select PPARγ target genes that are involved in controlling metabolism by suppressing the action of endogenous ligands. The thiazolidinedione (TZD) family of synthetic PPARγ ligands can overcome the suppressive effects of SIRT1 acting through helix 7 as well as helix 12 to induce the metabolic genes.
# as §2
# Ero1-Lα = assay: Transient knockdown of Ero1-Lα in 3T3-L1 adipocytes; format: cell-based, Murine; settings: 100 nM RNAi duplex, transfected day 4 and 5, harvested day 6
# Protocol: 3T3-L1 preadipocytes were cultured in 60 mm dishes and induced to differentiate as described above. On day 4, the differentiation-inducing medium was replaced with 2.5 mL, fresh DMEM containing 10% FBS. 15 μL TransIT-TKO Transfection Reagent (Mirus Bio Cooperadon. Madison, Wis.) was diluted into 250 μL serum free DMEM and incubated at room temperature for 20 minutes, at which time 100 nM Ero1-Lα RNAi duplex or control duplex […]) was added and mixed thoroughly. After incubation at room temperature for another 20 minutes, the resulting TranIT-TKO/RNAi mixture was gently mixed into the adipocyte cultures. The next day, the medium was changed to 2.5 mL flesh DMEM containing 10% FBS and the transfection was repeated as on day 4. On day 6, the total cellular proteins were harvested and subjected to Western blot analysis. The modified synthetic Ero1-Lα RNAi duplexes (Stealth™ siRNA) were from Invitrogen Life Technologies. The sequences are as follows:
# Western Blot Analysis of Proteins: Isolation and western blot analysis of total cell proteins was performed as outlined previously (21). […]
# [9] = control and SIRT1 knock down 3T3-L1 cells, T0070907 10 μM (FIG. 6D)
# [10] = troglitazone 5 μM or T0070907 10 μM, 3 days
# [11] = resveratrol 50 μM or nicotinamide 5 mM, 2 days
# [12] = resveratrol 50 μM or nicotinamide 5 mM, 2 days, reducing SDS-PAGE
compound,measurement,setting,value
NC(=O)C1CCCCc2c1[nH]c1ccc(Cl)cc21 (racemic) [Compound E2],FGF21 expression induced by troglitazone (FIG. 20),[1],potentiate the activity of troglitazone in inducing FGF21 expression
"Cc1ccc2[nH]c3c(c2c1)CCCC3C(N)=O (stereo not drawn) [Compound 4, 6-Methyl-2,3,4,9-tetrahydro-1H-carbazole-1-carboxylic acid amide]",IC50,SIRT1 [2],< 1 µM
NC(=O)C1CCCc2c1[nH]c1ccc(Cl)cc21 (stereo not drawn) [Compound E1],activity against the SIRT1 enzyme,SIRT1 [3],inactive isomer
NC(=O)C1CCCc2c1[nH]c1ccc(Cl)cc21 (stereo not drawn) [Compound E3],FGF21 expression induced by troglitazone (FIG. 20),[1],potentiate the activity of troglitazone in inducing FGF21 expression
same,activity against the SIRT1 enzyme,SIRT1 [3],active isomer
O=C(Nc1ccncc1)c1cc([N+](=O)[O-])ccc1Cl [Compound T0070907],Ero1-Lα expression,3T3-L1 adipocytes [4]; [9],inhibits Ero1-Lα expression
same,adiponectin secretion,3T3-L1 adipocytes [4]; [9],suppresses adiponectin secretion
same,amount of secreted HMW adiponectin,3T3-L1 adipocytes [4]; [10],has the opposite effect
same,secretion of adipsin,3T3-L1 adipocytes [4]; [10],has the opposite effect
same,Ero1-Lα mRNA expression,[5],attenuates Ero1-Lα expression
same,expression of C/EBPα and adiponectin in response to endogenous ligands (FIG. 14B),Swiss WT-PPARγ cells,moderately attenuate
same,expression of the Group 2 genes in response to endogenous ligands (FIG. 14B),Swiss WT-PPARγ cells,almost completely block expression of the Group 2 genes; also recorded: the most potent
CN(CCOc1ccc(C[C@H](Nc2ccccc2C(=O)c2ccccc2)C(=O)O)cc1)c1ccccn1 [GW1929],expression of select Group 1 genes (FIG. 14A),Swiss EF-PPARγ cells,capable of inducing expression of the Group 2 genes as well as Group 1 genes
same,transcriptional activity of the 500 bp fragment of the FGF21 gene,[6]; Swiss cells stably expressing WT-PPARγ,enhanced many fold
same,luciferase activity of FGF21 gene fragments (FIG. 15B),[6]; Swiss fibroblasts co-transfected with PPARγ expression plasmid,enhanced even further
same,luciferase activity of FGF21 gene fragments (FIG. 15B),[6]; control Swiss fibroblasts without PPARγ plasmid,has no affect on this activity
O=C(Nc1ccccc1)c1cc([N+](=O)[O-])ccc1Cl [GW9662],expression of C/EBPα and adiponectin in response to endogenous ligands (FIG. 14B),Swiss WT-PPARγ cells,moderately attenuate
same,expression of the Group 2 genes in response to endogenous ligands (FIG. 14B),Swiss WT-PPARγ cells,almost completely block expression of the Group 2 genes
C[C@@H]1C[C@@H]([C@H](O)CC2CC(=O)NC(=O)C2)C(=O)[C@@H](C)C1 [cycloheximide],FGF21 mRNA expression (FIG. 15A),"Swiss WT-PPARγ cells; day 5 cells, troglitazone 5 μM or cycloheximide 5 μg/ml for 4, 6 or 8 hrs",induced simply due to exposure to cycloheximide
O=C[C@H](O)[C@@H](O)[C@H](O)[C@H](O)CO [glucose],secretion of HMW forms of adiponectin,"3T3-L1 adipocytes [4]; glucose or 20 mM lactate, non-reducing SDS-PAGE without heat",significant increase in the appearance of the HMW species in the media
same,SIRT1 expression,"3T3-L1 adipocytes [4]; increase in glucose concentration, 72 hrs",significant decrease of SIRT1 expression
same,amount of adiponectin secreted into the medium (Ext),"3T3-L1 adipocytes [4]; increasing concentrations of glucose, 72 hrs, reducing SDS-PAGE",dramatically increases the amount of adiponectin secreted into the medium
NC(=O)c1cccnc1 [nicotinamide],secretion of adipsin,3T3-L1 adipocytes [4]; [11],has no effect on adipsin
same,secretion of the HMW adiponectin complexes,3T3-L1 adipocytes [4]; [11],enhances
same,secretion of adiponectin (Ext),3T3-L1 adipocytes [4]; [12],enhancing secretion of adiponectin
Oc1ccc(C=Cc2cc(O)cc(O)c2)cc1 [resveratrol],secretion of adipsin,3T3-L1 adipocytes [4]; [11],without affecting secretion of adipsin
same,secretion of the HMW adiponectin complexes,3T3-L1 adipocytes [4]; [11],decreases
same,secretion of adiponectin (Ext),3T3-L1 adipocytes [4]; [12],reduces the secretion of adiponectin
same,secretion of adiponectin,[7],inhibits secretion of adiponectin
Cc1c(C)c2c(c(C)c1O)CCC(C)(COc1ccc(CC3SC(=O)NC3=O)cc1)O2 (stereo not drawn) [troglitazone],"doses of troglitazone inducing C/EBPα, adiponectin and FABP4/aP2 (FIG. 14C)","Swiss EF-PPARγ cells; EF-PPARγ cells, 5 days",250 to 500 nM
same,dose of troglitazone inducing FGF21 and Egln1 (FIG. 17B),3T3-L1 adipocytes [8],250 nM
OCCS [β-mercaptoethanol],secretion of adiponectin,"3T3-L1 adipocytes [4]; β-mercaptoethanol treatment, preliminary data, not shown",significantly enhances the secretion of adiponectin
GGGCUCUCUCCAAAGUGCUUCCAUU [siRNA #3],attenuation of Ero1-Lα expression,Ero1-Lα,the most effective
